From a flash point compilation (Sun et al. 2020) come the findings set out here.

Take `O=C(Cl)CCl` [2-chloroacetyl chloride]: the flash point came out at 100.00 °C.
On to `O=Cc1ccccc1Cl` [2-chlorobenzaldehyde], for which the flash point amounted to 88.00 °C.
Molecule `C=CC(=C)Cl` [2-chlorobuta-1,3-diene] displayed a flash point of -20.00 °C.
On to `OCCCl` [2-chloroethanol], for which the flash point was 60.00 °C.
Consider `ClC=Cc1ccccc1` [2-chloroethenylbenzene], for which the flash point stood at 58.00 °C.
The value for `Clc1ccc2ccccc2c1` [2-chloronaphthalene] was 125.00 °C.
Take `Oc1ccccc1Cl` [2-chlorophenol]: the flash point amounted to 64.00 °C.
The same measure for `CC(Cl)CO` (configuration not stated) [2-chloropropan-1-ol]: 52.00 °C; for `CCCCCCCCCCCCc1ccccc1S(=O)(=O)O` [2-dodecylbenzenesulfonic acid]: 149.00 °C; for `C=Cc1ccccn1` [2-ethenylpyridine]: 42.00 °C.
The value for `CCOC1CCC=CO1` (configuration not stated) [2-ethoxy-3,4-dihydro-2H-pyran] was 37.00 °C.
The value for `CCOCCOC(C)=O` [2-ethoxyethyl acetate] was 57.00 °C.
The molecule `CCc1cccc(C)c1N` [2-ethyl-6-methylaniline] yielded a flash point of 102.00 °C.
The value for `CCCCC(CC)CNCC(CC)CCCC` (configuration not stated) [2-ethyl-N-(2-ethylhexyl)hexan-1-amine] was 132.00 °C; that for `CCC(C=O)CC` [2-ethylbutanal] was 21.00 °C.
The value for `CCC(CC)COC(C)=O` [2-ethylbutyl acetate] was 54.00 °C; that for `CCCCC(CC)CN` (configuration not stated) [2-ethylhexan-1-amine] was 60.00 °C; that for `CCCCC(CC)CO` (configuration not stated) [2-ethylhexan-1-ol] was 81.00 °C.
The same measure for `CCCCC(C=O)CC` (configuration not stated) [2-ethylhexanal]: 52.00 °C; for `CCCC(O)C(CC)CO` (configuration not stated) [2-ethylhexane-1,3-diol]: 127.00 °C; for `CCCCC(CC)C(=O)O` (configuration not stated) [2-ethylhexanoic acid]: 127.00 °C.
`CCCCC(CC)COC(=O)COc1ccc(Cl)cc1Cl` (configuration not stated) [2-ethylhexyl 2-(2,4-dichlorophenoxy)acetate] showed a flash point of 171.00 °C.
The value for `CCCCC(CC)COP(=O)(Oc1ccccc1)Oc1ccccc1` (configuration not stated) [2-ethylhexyl diphenyl phosphate] was 224.00 °C.
With `C=CC(=O)OCC(CC)CCCC` (configuration not stated) [2-ethylhexyl prop-2-enoate], the flash point is 82.00 °C.
As for `CCC1CO1` (configuration not stated) [2-ethyloxirane], the flash point was -12.00 °C.
The molecule `Nc1ccccc1F` [2-fluoroaniline] gave a flash point of 60.00 °C.
For the molecule `CCCCCCOCCO` [2-hexoxyethanol], the flash point came to 91.00 °C.
The molecule `CC(C)(O)C#N` [2-hydroxy-2-methylpropanenitrile] came in with a flash point of 74.00 °C.
The same measure for `CC(=O)OCCO` [2-hydroxyethyl acetate]: 102.00 °C; for `NC(=O)OCCO` [2-hydroxyethyl carbamate]: 188.00 °C.
For the molecule `CCCCCCCCCCCCCCCCCC(=O)OCCO` [2-hydroxyethyl octadecanoate], the flash point came to 260.00 °C.
The molecule `O=C(O)CC(O)(CC(=O)O)C(=O)O` [2-hydroxypropane-1,2,3-tricarboxylic acid] had a flash point of 100.00 °C.
`CC(O)C#N` (configuration not stated) [2-hydroxypropanenitrile]: the flash point amounted to 77.00 °C.
The same measure for `CC(O)C(=O)O` (configuration not stated) [2-hydroxypropanoic acid]: 113.00 °C.
The value for `C/C=C/c1ccc(O)c(OC)c1` [2-methoxy-4-[(E)-prop-1-enyl]phenol] was 113.00 °C; that for `COCCOC(C)=O` [2-methoxyethyl acetate] was 44.00 °C.
The same measure for `COc1ccccc1O` [2-methoxyphenol]: 74.00 °C.
Turning to `COC(C)COC(C)=O` (configuration not stated) [2-methoxypropyl acetate], the flash point stood at 25.00 °C.
The value for `CC(C)CNCC(C)C` [2-methyl-N-(2-methylpropyl)propan-1-amine] was 29.00 °C; that for `Cc1ccccc1N` [2-methylaniline] was 85.00 °C.
The same measure for `Cc1ccccc1C#N` [2-methylbenzonitrile]: 84.00 °C; for `C=CC(C)(C)O` [2-methylbut-3-en-2-ol]: 13.00 °C; for `C=CC(=C)C` [2-methylbuta-1,3-diene]: -54.00 °C.
`CCC(C)CO` (configuration not stated) [2-methylbutan-1-ol] came in with a flash point of 50.00 °C.
For `CCC(C)(C)OC(C)=O` [2-methylbutan-2-yl acetate], the flash point came to 26.00 °C.
The molecule `CC1CCCCC1=O` (configuration not stated) [2-methylcyclohexan-1-one] yielded a flash point of 48.00 °C.
The same measure for `Cc1ccco1` [2-methylfuran]: -30.00 °C.
In the case of `CC1CO1` (configuration not stated) [2-methyloxirane], the flash point was -37.00 °C.
For the molecule `C=C(C)CCC` [2-methylpent-1-ene], the flash point was -26.00 °C.
The value for `CCCC(C)CO` (configuration not stated) [2-methylpentan-1-ol] was 54.00 °C; that for `CCCC(C)C=O` (configuration not stated) [2-methylpentanal] was 20.00 °C.
The value for `CC(O)CC(C)(C)O` (configuration not stated) [2-methylpentane-2,4-diol] was 93.00 °C; that for `C=C(C)C` [2-methylprop-1-ene] was -76.00 °C.
The same measure for `C=C(C)C=O` [2-methylprop-2-enal]: 2.00 °C; for `C=C(C)C(=O)O` [2-methylprop-2-enoic acid]: 77.00 °C; for `CC(C)CN` [2-methylpropan-1-amine]: -9.00 °C.
`CC(C)(C)O` [2-methylpropan-2-ol] showed a flash point of 11.00 °C.
The value for `CC(C)C` [2-methylpropane] was -83.00 °C.
In turn, `CC(C)C#N` [2-methylpropanenitrile] registered a flash point of 8.00 °C.
The value for `CC(C)C(=O)OC(=O)C(C)C` [2-methylpropanoyl 2-methylpropanoate] was 59.00 °C; that for `CC(C)COC(=O)C(C)C` [2-methylpropyl 2-methylpropanoate] was 37.00 °C.
In turn, `CC(=O)OCC(C)C` [2-methylpropyl acetate] registered a flash point of 17.00 °C.
As to `C=CC(=O)OCC(C)C` [2-methylpropyl prop-2-enoate], the flash point worked out at 30.00 °C.
The same measure for `Cc1ccccn1` [2-methylpyridine]: 36.00 °C; for `Cc1ccc2ccccc2n1` [2-methylquinoline]: 79.00 °C; for `Nc1ccccc1[N+](=O)[O-]` [2-nitroaniline]: 168.00 °C.
The value for `CCCCCCCCC1CO1` (configuration not stated) [2-octyloxirane] was 78.00 °C; that for `OCCOc1ccccc1` [2-phenoxyethanol] was 121.00 °C; that for `N#CCc1ccccc1` [2-phenylacetonitrile] was 102.00 °C.
The same measure for `OCCc1ccccc1` [2-phenylethanol]: 96.00 °C; for `OCCOCc1ccccc1` [2-phenylmethoxyethanol]: 129.00 °C; for `c1ccc(C2CO2)cc1` (configuration not stated) [2-phenyloxirane]: 79.00 °C.
`NCCN1CCNCC1` [2-piperazin-1-ylethanamine] yielded a flash point of 93.00 °C.
Consider `CC(C)c1ccc2ccccc2c1` [2-propan-2-ylnaphthalene], for which the flash point was 122.00 °C.
The value for `O=C(O)CS` [2-sulfanylacetic acid] was 113.00 °C; that for `COc1ccc(O)c(C(C)(C)C)c1.COc1ccc(O)cc1C(C)(C)C` [2-tert-butyl-4-methoxyphenol;3-tert-butyl-4-methoxyphenol] was 113.00 °C.
The value for `COc1ccc(O)c(C(C)(C)C)c1` [2-tert-butyl-4-methoxyphenol] was 156.00 °C; that for `CC(C)(C)OOC(C)(C)C` [2-tert-butylperoxy-2-methylpropane] was 18.00 °C.
The value for `CC(C)(C)c1ccccc1O` [2-tert-butylphenol] was 110.00 °C; that for `c1ccc2n[nH]nc2c1` [2H-benzotriazole] was 170.00 °C.
Consider `C=CC(F)(F)C(F)(F)C(F)(F)C(F)(F)F` [3,3,4,4,5,5,6,6,6-nonafluorohex-1-ene], for which the flash point is -17.00 °C.
The same measure for `CC1CC(O)CC(C)(C)C1` (configuration not stated) [3,3,5-trimethylcyclohexan-1-ol]: 74.00 °C.
As for `O=CC1CCC=CO1` (configuration not stated) [3,4-dihydro-2H-pyran-2-carbaldehyde], the flash point was found to be 48.00 °C.
The value for `C1=COCCC1` [3,4-dihydro-2H-pyran] was -18.00 °C.
`Cc1ccc(N)cc1C` [3,4-dimethylaniline] came in with a flash point of 98.00 °C.
Molecule `CC(CCO)CC(C)(C)C` (configuration not stated) [3,5,5-trimethylhexan-1-ol] returned a flash point of 93.00 °C.
`CN1CSC(=S)N(C)C1` [3,5-dimethyl-1,3,5-thiadiazinane-2-thione] had a flash point of 93.00 °C.
`Cc1cc(C)cc(N)c1` [3,5-dimethylaniline] gave a flash point of 93.00 °C.
The value for `C=CC(C)(O)CCC=C(C)C` (configuration not stated) [3,7-dimethylocta-1,6-dien-3-ol] was 78.00 °C; that for `CC(C)=CCCC(C)=CC=O` [3,7-dimethylocta-2,6-dienal] was 102.00 °C; that for `CN1CCCC1c1cccnc1` (configuration not stated) [3-(1-methylpyrrolidin-2-yl)pyridine] was 101.00 °C.
The molecule `CC1CCCCN1CCCOC(=O)c1ccc(Cl)c(Cl)c1` (configuration not stated) [3-(2-methylpiperidin-1-yl)propyl 3,4-dichlorobenzoate] displayed a flash point of 71.00 °C.
